From patent US20250320249A1, “PEPTIDE HAVING ACTIVITY OF IMPROVING STATE OF SKIN, AND USE THEREOF” (CAREGEN CO., LTD., priority 2021, published 2025)

What was measured:
fibronectin = experiment: Expression of extracellular matrix constituent factor in NIH3T3 cells (RT-PCR); format: cell-based, mouse; details: 50 μM or 100 μM peptide, 24 hours, FIG. 2, FIG. 3B
Experimental: (§1) In this example, the aim was to confirm the effect of the peptide according to an example on improving endogenous skin aging, including improvement of wrinkles and enhancement of elasticity, etc., by evaluating the expression levels of collagen type 1 (Col1a1), fibronectin, or elastin, which are known components of the dermis.
(§2) Specifically, NIH3T3 cells were seeded in a 6-well plate at a density of 3×10^5 cells/well and cultured for 24 hours. The cells were then washed once with serum-free DMEM media, and the culture medium was replaced with serum-free DMEM media. Thereafter, 50 μM or 100 μM of the peptide consisting of the amino acid sequence of SEQ ID NO: 1 was dispensed into the medium, and cultured in a CO2 incubator at 37° C. for 24 hours. The culture was then washed twice with PBS, and RNA was isolated from the culture using easy blue (iNtRON, Korea). Using an RT kit (Enzynomics, Korea), 1 μg of the isolated RNA was reverse transcribed to synthesize the respective cDNA. Polymerase chain reaction (PCR) was then performed using the cDNAs and primers Col1a1, fibronectin, and elastin. Meanwhile, the untreated group was used as the control group, and the group to which TGF-β1 was added (TGF-β1) was used as the positive control group, the nucleotide sequences of the primers used in this example are shown in Table 2 below.

elastin = experiment: as above; format: cell-based, mouse; details: 50 μM or 100 μM peptide, 24 hours, FIG. 2, FIG. 3C
Experimental: as §1, §2

collagen type 1 (Col1a1) = experiment: as above; format: cell-based, mouse; details: 50 μM or 100 μM peptide, 24 hours, FIG. 2, FIG. 3A
Experimental: as §1, §2

NIH3T3 cells [1] = experiment: Proliferation of skin cells (SRB staining, survival rate); format: cell-based, mouse; details: 50 μM or 100 μM peptide, 72 hours, serum-free DMEM, FIG. 1A
Experimental: (§3) In this example, the aim was to confirm the effect of a peptide according to an example on proliferation of skin cells, by evaluating changes in survival rate of NIH3T3 cells, which are mouse fibroblasts, or HaCaT cells, which are human keratinocytes.
(§4) Specifically, NIH3T3 cells or HaCaT cells were seeded in a 96-well plate at a density of 5×10^3 cells/well and cultured for 24 hours. The cells were then washed once with serum-free DMEM media, and the culture medium was replaced with serum-free DMEM media. Then, 50 μM or 100 μM of the peptide consisting of the amino acid sequence of SEQ ID NO: 1 was dispensed into the medium, and cultured in a CO2 incubator at 37° C. for 72 hours. The culture was then washed twice with PBS and treated with 4% paraformaldehyde (PFA) solution for 15 minutes to fix the cultured cells. The culture was then washed twice with distilled water, treated with SRB solution for 1 hour to stain the cells, washed with 1% acetic acid solution, and dried. The dried culture was then dissolved in 20 mM Tris buffer solution and the absorbance at 560 nm was measured using a microplate reader (Molecular Devices, USA). In this example, the untreated group was used as the control group, and the group to which insulin-like growth factor was added (IGF) was used as the positive control group.

sirtuin-1 (SIRT-1) = experiment: Expression of skin barrier factor in HaCaT cells (RT-PCR); format: cell-based, human; details: 50 μM or 100 μM peptide, 24 hours, FIG. 4, FIG. 5A
Experimental: (§5) In this example, the aim was to confirm the effect of the peptides according to an example on skin barrier defense, by evaluating the expression levels of sirtuin-1 (SIRT-1) or aquaporin-3 (AQP3).
(§6) Specifically, HaCaT cells were seeded in a 6-well plate at a density of 3×10^5 cells/well and cultured for 24 hours. The cells were then washed once with serum-free DMEM media, and the culture medium was replaced with serum-free DMEM media. Thereafter, 50 μM or 100 μM of the peptide consisting of the amino acid sequence of SEQ ID NO: 1 was dispensed into the medium, and cultured in a CO2 incubator at 37° C. for 24 hours. The culture was then washed twice with PBS, and RNA was isolated from the culture using easy blue (iNtRON, Korea). Using the RT kit (Enzynomics, Korea), 1 μg of the isolated RNA was reverse transcribed to synthesize the respective cDNA. Polymerase chain reaction was then performed using the cDNAs and primers sirtuin-1 and aquaporin-3. Meanwhile, the untreated group was used as the control group, and the group to which EGF was added (EGF) was used as the positive control group, the nucleotide sequences of the primers used in this example are shown in Table 3 below.

aquaporin-3 (AQP3) = experiment: as above; format: cell-based, human; details: 50 μM or 100 μM peptide, 24 hours, FIG. 4, FIG. 5B
Experimental: as §5, §6

HaCaT cells [2] = experiment: Level of reactive oxygen species in ultraviolet-irradiated skin cells (DCF-DA, flow cytometry); format: cell-based, human; details: 15 m J/cm2 ultraviolet rays, 50 μM or 100 μM peptide, 24 hours, FIG. 7B
Experimental: (§7) In this example, the aim was to confirm the effect of the peptide according to an embodiment on the antioxidant effect of skin cells induced by ultraviolet rays, by evaluating the level of reactive oxygen species in skin cells increased by ultraviolet irradiation.
(§8) Specifically, NIH3T3 cells or HaCaT cells were seeded in a 6-well plate at a density of 5×10^5 cells/well and cultured for 24 hours. The cells were then washed once with serum-free DMEM media, the culture medium was replaced with serum-free DMEM media, and 50 μM or 100 μM of the peptide consisting of the amino acid sequence of SEQ ID NO: 1 was dispensed to the culture medium. The culture medium dispensed with the peptide was cultured in a CO2 incubator at 37° C. for 1 hour, transferred to an e-tube, mixed with 100 μl of PBS, and dispensed into a well plate. Afterwards, using a UV irradiator (VILBER LOURMAT, France), 6 J/cm2 ultraviolet rays were irradiated to NIH3T3 cells, and 15 m J/cm2 ultraviolet rays were irradiated to HaCaT cells. The PBS in the well plate was then removed, 900 μL of the culture medium in which the peptides were dispensed was added, and the plate was cultured in a CO2 incubator at 37° C. for 24 hours. […] After washing the centrifuged cells with PBS, FL1 fluorescence values were measured through flow cytometry (FACS, BD, USA). […]

HaCaT cells [3] = experiment: Survival rate of skin cells after apoptosis induced by ultraviolet irradiation (SRB); format: cell-based, human; details: 15 m J/cm^2 ultraviolet rays, 50 μM or 100 μM peptide, 72 hours, FIG. 6B
Experimental: (§9) In this example, the aim was to confirm the effect of the peptide according to an example on the inhibition of apoptosis or cell recovery of skin cells induced by ultraviolet rays, by evaluating the change in survival rate of skin cells whose apoptosis was induced by ultraviolet irradiation.
(§10) Specifically, NIH3T3 cells or HaCaT cells were seeded in a 96-well plate at a density of 1×10^4 cells/well and cultured for 24 hours. The cells were then washed once with serum-free DMEM media, the culture medium was replaced with serum-free DMEM media, and 50 μM or 100 μM of the peptide consisting of the amino acid sequence of SEQ ID NO: 1 was dispensed to the culture medium. The culture medium dispensed with the peptide was cultured in a CO2 incubator at 37° C. for 1 hour, transferred to an e-tube, mixed with 100 μl of PBS, and dispensed into a well plate. Afterwards, using a UV irradiator (VILBER LOURMAT, France), 6 J/cm^2 ultraviolet rays were irradiated to NIH3T3 cells, and 15 m J/cm^2 ultraviolet rays were irradiated to HaCaT cells. The PBS in the well plate was then removed, 900 μL of the culture medium in which the peptides were dispensed was added, and the plate was cultured in a CO2 incubator at 37° C. for 72 hours. […] The dried culture was then dissolved in 20 mM Tris buffer solution and the absorbance at 560 nm was measured using a microplate reader (Molecular Devices, USA). […]

NIH3T3 cells [4] = experiment: as above; format: cell-based, mouse; details: 6 J/cm^2 ultraviolet rays, 50 μM or 100 μM peptide, 72 hours, FIG. 6A
Experimental: as §9, §10

NIH3T3 cells [5] = experiment: Level of reactive oxygen species in ultraviolet-irradiated skin cells (DCF-DA, flow cytometry); format: cell-based, mouse; details: 6 J/cm2 ultraviolet rays, 50 μM or 100 μM peptide, 24 hours, FIG. 7A
Experimental: as §7, §8

HaCaT cells [6] = experiment: Proliferation of skin cells (SRB staining, survival rate); format: cell-based, human; details: 50 μM or 100 μM peptide, 72 hours, serum-free DMEM, FIG. 1B
Experimental: as §3, §4

DGFND (Peptide 1) [SEQ ID NO: 1]
expression of fibronectin (fibronectin): increased | expression of elastin (elastin): increased | expression of Col1a1 (collagen type 1 (Col1a1)): increased | proliferation of fibroblasts (NIH3T3 cells [1]): promoted | expression of SIRT-1 (sirtuin-1 (SIRT-1)): increased | expression of AQP3 (aquaporin-3 (AQP3)): increased | level of reactive oxygen species in keratinocytes increased by ultraviolet irradiation (HaCaT cells [2]): reduced | cell survival rate of keratinocytes reduced by ultraviolet irradiation (HaCaT cells [3]): restored | cell survival rate of fibroblasts reduced by ultraviolet irradiation (NIH3T3 cells [4]): restored | level of reactive oxygen species in fibroblasts increased by ultraviolet irradiation (NIH3T3 cells [5]): reduced | proliferation of keratinocytes (HaCaT cells [6]): promoted
